Patent US20050107289A1, “Anti-microbial peptides and compositions” (priority 2001, published 2005)
Non-standard residues stand in square brackets, D forms with d. Residues, ends and D or L forms follow the SMILES beside them.

What was measured:
in vivo = settings: for bioavailability / Vd / clearance / half-life: Balb/C, mouse, plasma; for bioavailability: intraperitoneal, 100 mg/kg; for Vd / clearance / half-life: iv; for Kel elimination rate constant: Mouse, IV injection
Protocol: IV injection: Solution of peptide in 9% sucrose (1 mg/mL) was injected IV into the tail vein of Balb/C mice at a dose of 3.6 mg/kg. Then the blood was collected immediately from one group of mice (3 mice per group) by bleeding the tail, separately from each mouse (50-100 uL per mouse). Further collections of blood were done from other groups of mice at times 20, 40, 70, 90, 120, 180, and 260 min after injection. Plasma from each blood sample was separated immediately after collection by spinning down red blood cells over a period of 5 min at 4000 rev./min. The plasma was then diluted with an equal volume of saline and refrigerated until analysis.
IP injection: Solutions of peptide in 9% sucrose (8.1 mg/mL) were injected EP into Balb/C mice at a dose of 100 mg/kg. Blood was collected immediately from one group of mice (3 mice per group) by bleeding the tail, separately from each mouse (50-100 uL per mouse). Further collections of blood were done from other groups of mice at times 0.5, 1, 2, 4, 6, 10, 15 h after injection. Plasma from each blood sample was separated immediately after collection by spinning down red blood cells over a period of 5 min at 4000 rev./min. Plasma was then diluted with equal volume of saline and refrigerated until analysis.
Detection of cyclo[RRKWLWW]-HCl in plasma by HPLC: Diluted with saline plasma (50-100 uL) was added to an eluent A (0.1% HCl in 99% H2O/1% ACN (v/v)) (150-300 uL), vortexed, and partial precipitation was removed by centrifugation. The clear solution was injected into an HPLC and the peptide was detected at 280 nm, in the 8-10 min interval, using a gradient of eluent A (0.1% HCl in 99% H2O/1% ACN (v/v)) and eluent B (0.07% HCl in 10% H2O/90% ACN (v/v)) using a flow rate of 1.5 ml/min. The following gradient was used: 30 to 30% B (5 min), followed by 30 to 37% B (5 min), followed by 37 to 40% B (12.5 min).
IV injection: Solution of peptide in 9% sucrose (2 mg/mL) was injected IV into the tail vein of Balb/C mice at a dose of 5 mg/kg. Blood was then collected immediately from one group of mice (3 mice per group) by bleeding the tail, separately from each mouse (50-100 uL per mouse). Further collections of blood were done from other groups of mice at times 30, 60, 120, 230, and 300 min after injection. Plasma from each blood sample was separated immediately after collection by spinning down red blood cells over a period of 5 min at 4000 rev./min. Plasma was then diluted with an equal volume of saline and refrigerated until analysis.
IP injection: Solution of peptide in 9% sucrose (9.8 mg/mL) was injected IP into Balb/C mice at a dose of 100 mg/kg. Blood was then collected immediately from one group of mice (3 mice per group) by bleeding the tail, separately from each mouse (50-100 uL per mouse). Further collections of blood were done from other groups of mice at times 0.5, 1, 2, 4, 6, 10 h after injection. Plasma from each blood sample was separated immediately after collection by spinning down red blood cells over a period of 5 min at 4000 rev./min. Plasma was then diluted with an equal volume of saline and refrigerated until analysis.
Detection of c(KSKWLWW) HC in plasma by HPLC: Samples were diluted with saline plasma (50-100 uL), added to an equal volume of eluent A (0.1% TFA in 96.5% H2O/0.9% ACN/2.4% MeOH (v/v)), vortexed, and partial precipitation was removed by centrifugation. The clear solution was injected into HPLC and the peptide was detected at 280 nm, in the 18-20 min interval, using a gradient of eluent A (0.1% TFA in 96.5% H2O/0.9% ACN/2.4% MeOH (v/v)) and eluent B (0.05% TFA in 8% H2O/72% ACN/20% MeOH (v/v)) using a flow rate of 1.5 ml/min. The following gradient was used: 0 to 0% B (5 min), followed by 0 to 100% B (25 min).

[1] = system: Streptococcus pneumoniae (ATCC 6301); format: cell-based
Outline: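 Peptide activity was measured by NCCLS M7-A4 broth dilution, mostly as microdilution with some macrodilution. Serial 2-fold dilutions, approximately 400-2 μg/ml stock range, were made in 5% DMSO/9% aq. sucrose. Overnight cultures were diluted 4000-fold to about 2.5×10^5 cfu/ml inoculum.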

Row | SMILES | bioavailability (in vivo) [%] | Vd (in vivo) [L/kg] | clearance (in vivo) [mL/min] | half-life (in vivo) [h] | Kel elimination rate constant (in vivo) [h⁻¹] | S. pneum. MIC [1] [µg/mL]
1 | CC(C)C[C@H]1NC(=O)[C@H](Cc2c[nH]c3ccccc23)NC(=O)[C@@H](CCCCN)NC(=O)[C@H](CO)NC(=O)[C@@H](CCCCN)NC(=O)[C@H](Cc2c[nH]c3ccccc23)NC(=O)[C@@H](CC(C)C)NC(=O)[C@H](Cc2c[nH]c3ccccc23)NC1=O [SEQ ID NO:12, D-Lys-Ser-D-Lys-Trp-D-Leu-Trp-D-Leu-Trp] (cyclo([dK]S[dK]W[dL]W[dL]W)) | 32 | 0.67 | 0.3 | 0.83 | 0.84 | 10
2 | CC(C)C[C@H]1NC(=O)[C@H](Cc2c[nH]c3ccccc23)NC(=O)[C@@H](CCCCN)NC(=O)[C@H](CCCNC(=N)N)NC(=O)[C@@H](CCCNC(=N)N)NC(=O)[C@H](Cc2c[nH]c3ccccc23)NC(=O)[C@@H](CC(C)C)NC(=O)[C@H](Cc2c[nH]c3ccccc23)NC1=O [SEQ ID NO:18, cyclo-(D-Arg-Arg-D-Lys-Trp-D-Leu-Trp-D-Leu-Trp)] (cyclo([dR]R[dK]W[dL]W[dL]W)) | 9 | 0.58 | 0.16 | 1.2 | 0.6 | 5
